Test results: patent US20050129779A1, “Use of a hsp inducing compound to limit the side effects of retinoids” (priority 2002, published 2005)

Tests used:
HSP 70 [1] = experiment: Immuno-blot of HSP in cultured human fibroblasts; assay type: cell-based; conditions: 10^-7 M ATRA, 3% extract
Protocol: […] Several different experimental conditions were used for the fibroblasts.
The conditions that were tested on the fibroblasts were as follows: • Control condition (non-treated cells) • Cells treated with 10^−7M all-trans retinoic acid (ATRA) • Cells treated with 3% of the extract from example 1 • Cells treated with 10^−7 M all-trans retinoic acid and 3% of the extract from example 1.
The results illustrated in FIGS. 1 and 2 represent the quantities of HSP obtained by immunoblotting carried out on the human fibroblasts following the treatments in various culture conditions.

HSP 70 [2] = experiment: Ex vivo immunostaining of HSP 70 in cultured skin samples; assay type: cell-based; conditions: ex vivo skin cultured 5 days; 10^-7 retinoic acid; 1-3% extract
Excerpt: Ex vivo immunostaining studies have enabled it to be determined that HSP 70 is expressed in skin samples which have been cultured for 5 days. The samples were either treated or untreated with 10^−7retinoic acid plus 1-3% of the extract from example 1.

IL-1 alpha = experiment: Interleukin-1 ELISA in HaCat keratinocytes and fibroblasts (inflammation induced by retinoids); assay type: cell-based, human; conditions: 10^-7 M ATRA 6 days, 3% extract 48 hours
Protocol: The Artemia extract from example 1 was used at 3% in in vitro tests in order to show the benefits of applying it in combination with retinoids, with the overall goal of diminishing the inflammation induced by retinoids.
Human HaCat keratinocytes and fibroblasts were cultured in 100mm diameter culture dishes. When the cells reached 50% confluence, they were either treated with 3% of extract from example 1 or not, for 48 hours. In a parallel manner, concentrations of 10^−7M all-trans retinoic acid (ATRA) were, or were not, applied.
The following experimental conditions were used for the different treatment groups: • Control condition (no treatment); • Extract from example 1 for 48n hours; • All-trans retinoic acid (ATRA) for 6 days; • All-trans retinoic acid (ATRA) for 6 days of which 48 hours were treated in combination with the extract from example 1.
After six days in culture, the dose of Interleukin-1 was determined using ELISA, to show evidence of an inflammatory reaction.

HSP 70 [3] = conditions: ex vivo skin irradiated with 200 mJ/cm^2 UVB; 10^-7 retinoic acid; 1-3% extract
Protocol: The samples were either treated or untreated with 10^−7retinoic acid plus 1-3% of the extract from example 1. The skin samples were subsequently fixed in 9% formol salt for 10 hours. They were then embedded in paraffin using an automated method. 2-3 urn sections were then cut to be used for immunostaining.
The experiments in example three were repeated except that the skin samples were irradiated with a 200 mJ/cm^2 dose of UVB.

CC1=C(/C=C/C(C)=C/C=C/C(C)=C/C(=O)O)C(C)(C)CCC1 [retinoic acid, all-trans retinoic acid]
HSP 70 expression (immuno-blot, FIG. 2) (HSP 70 [1]; aging human fibroblasts (printed: cultured)): slightly augmented | HSP 70 expression (immuno-blot, FIG. 1) (HSP 70 [1]; young human fibroblasts (printed: cultured for 24 hours)): diminished | HSP 70 expression in skin samples (immunostaining) (HSP 70 [2]): clearly express less HSP 70 than non-treated skin samples | IL-1 alpha concentration / inflammatory response (ELISA, FIG. 3) (IL-1 alpha): significantly augmented | HSP 70 expression in skin samples following UV stress (immunostaining) (HSP 70 [3]): clearly diminished
